We go through one molecule from US20240060990A1, “SPATIAL SIGNALING NETWORKS FOR MULTIPLEXED DRUG RESPONSE MEASUREMENT AND MODELING” (Georgia Tech Research Corporation, priority 2022, published 2024).

The subject of experiment [1] is c-MYC. The conditions noted are these: EGFRm-sensitive cells; cited from earlier work.
The subject of experiment [2] is p-ERK(T202/Y204). As to the kind of experiment: p-ERK immunofluorescence in HCC827 cells. The conditions noted are these: 100 nM. The format is cell-based, human. Here is the method: (§1) Following that, the cells were then fixed and permeabilized with 1.6% formaldehyde in 1×PBS for 10 minutes at RT and 0.5% Triton X-100 for 10 minutes at RT, respectively. The cells were then blocked using a cell staining medium (CSM) containing 0.5% BSA, and 0.02% Sodium Azide in PBS. […] HCC827 cells were stained with p-ERK overnight followed by 1-hour incubation of secondary antibodies at RT, and 10 mins DAPI staining. The cells were then imaged at 40× magnification, and the intensity levels were analyzed. […] The coverslip was mounted to an acrylic holder for multiple cycles of staining.

Experiment [3] concerns p-EGFR (Y1068). The settings on record: PC9 cells; cited from earlier work.
In experiment [4] the test system is p-EGFR (Tyr1086). As to the kind of experiment: p-EGFR immunofluorescence across four drug concentrations. It counts as cell-based, human. The settings on record: PC9 cells, 48 hours. Here is the method:
Following that, the cells were then fixed and permeabilized with 1.6% formaldehyde in 1×PBS for 10 minutes at RT and 0.5% Triton X-100 for 10 minutes at RT, respectively (FIG. 10A). The cells were then blocked using a cell staining medium (CSM) containing […]. […] PC9 cells were stained with p-EGFR and β-tubulin overnight followed by 1-hour incubation of secondary antibodies at RT, and 15 mins DAPI staining. The cells were then imaged at 40× magnification, and the cell number was analyzed using ImageJ. […] The coverslip was mounted to an acrylic holder for multiple cycles of staining.

The subject of experiment [5] is Mcl-1/Bak. The conditions noted are these: HCC827 cells, 100 nM, 12 h, 5 PPI dataset. Here is the method:
as §1
(§2) RapMPI on cell cultures: For single color detection, each coverslip prepared with cells was stained with multiple PPIs with one PPI per cycle. The cells were fixed, permeabilized, and then ready for the following staining steps: 1) block the sample with Duolink blocking solution; 2) incubate it with one pair of proteins, conjugated to one PLUS and one MINUS oligonucleotide at 4° C. overnight.
PPI detection: PPI signals were detected using a custom algorithm leveraging a traditional image processing pipeline. More specifically, each PPI image was preprocessed as followed: images were first transformed using a top-hat filter of size 3 pixels to reduce the noise around PPI signals, then Laplacian of Gaussian images was used to detect bright local maxima as PPI signals. […]

Experiment [6] concerns HCC827-derived mouse xenografts. As to the kind of experiment: Tumor growth of HCC827-derived xenografts in mice. The format is in vivo. The conditions noted are these: daily Osimertinib.
The test system of experiment [7] is Cyclin E/CDK2. As to the kind of experiment: RapMPI (multiplexed PLA) PPI counts in HCC827 cells. The format is cell-based, human. The conditions noted are these: 100 nM, 12 h, 5 PPI dataset. As for the experimental part: as §1, §2
(§3) PPI detection: PPI signals were detected using a custom algorithm leveraging a traditional image processing pipeline. More specifically, each PPI image was preprocessed as followed: images were first transformed using a top-hat filter of size 3 pixels to reduce the noise around PPI signals, then Laplacian of Gaussian images was used to detect bright local maxima as PPI signals. In 3D images, double detection of PPI was filtered out at the same position in consecutive Z stacks. After detecting all the PPI locations in 3D, PPI was observed within a 2.5-pixel radius (0.045 um) by creating a PPI neighborhood graph of radius threshold 2.5 pixels and getting all connected components in the graph. Finally, the mean position of the unique connected components in the graph was extracted as identified unique PPI signals in 3D.

For experiment [8], the system named is p-ERK/c-Myc. Described as above. The format is cell-based, human. Here is the method:
as §1, §2, §3

For experiment [9], the system named is p-AKT/mTOR. Described as above. The format is cell-based, human. The settings on record: 100 nM, 12 h, 5 PPI dataset. Here is the method:
as §1, §2, §3

For experiment [10], the system named is p-AKT (S473). The conditions noted are these: PC9 cells; cited from earlier work.
Experiment [11] relates to PC9 cells. As to the kind of experiment: RapMIF pixel clustering and spatial signaling network. The format is cell-based, human. The text has this: Pixel clustering: Pixel phenotypes were clustered in a two-step clustering pipeline (FIG. 6A). From each pixel location within the cell segmented region, the intensity value of each marker expression was extracted. The resulting feature matrix consisted of n rows of a total number of pixels and p columns equal to the number of markers. Each column of the feature matrix was min-max normalized. Then to filter out the background, each pixel location (row in the matrix) with all markers intensity lower than 0.3 was considered as background and dropped from the feature matrix. The cut-off of 0.3 was determined empirically so noise was filtered out of the cell segmented region. The feature matrix was first clustered using the K-Means algorithm with a high number of clusters (k=60). Then, the mean expression per cluster was calculated and the cluster was merged based on hierarchical clustering on the cosine similarity of the mean expression using the average linkage method with a tolerance of 0.2 of the maximum distance between clusters. The latent feature space was obtained using Uniform manifold approximation and projection (UMAP) and cluster labels were visualized by assigning each cluster color and reprojected on the UMAP embedding. A Heatmap of the mean expression level of marker per cluster was generated to show the variation of cluster phenotype.
Spatial signaling network: The network representation of spatial signaling was represented using the spatial information of pixel clustering. Each cluster was represented by a node with node size in the network proportional to the number of pixels in the corresponding cluster. For each cluster, the distribution of the neighbor cluster was calculated by looking at the 2-hop neighbor's cluster of all pixels in the cluster. The edge color represented low (blue) to high (red) neighboring probability between two clusters.

The test system of experiment [12] is p-EGFR (Y1173). The conditions noted are these: PC9 cells; cited from earlier work.
The subject of experiment [13] is NSCLC patients. The settings on record: phase 3 clinical trial, 80 mg once daily, vs other EGFR-TKI drugs; cited from earlier work.
Experiment [14] relates to PC9 cells. As to the kind of experiment: Subpopulation clustering of single cells (Leiden). The format is cell-based, human. The conditions noted are these: 40 nM.

“Also recorded” adds a separate entry of the source.

For the molecule `C=CC(=O)Nc1cc(Nc2nccc(-c3cn(C)c4ccccc34)n2)c(OC)cc1N(C)CCN(C)C` [Osimertinib], the c-MYC degradation entry in experiment [1] is given as “induce the degradation of c-MYC”. Moreover, the p-ERK level entry in experiment [2] (6-hour treatment) is “suppressed initially”. For the same molecule, the p-ERK level result in experiment [2] (12-hour treatment) is “increased”. Further, in [3], the “p-EGFR (Y1068) level” value is reported as “failed to alter the p-EGFR (Y1068)”. For the same molecule, the “p-EGFR expression, 60 nM vs 40 nM” value in [4] was “relatively higher expression under 60 nM than 40 nM”. For the same molecule, the p-EGFR expression result in experiment [4] (0 to 20 nM to 40 nM, normalized to β-tubulin) is on record as “decreased the p-EGFR expression as the drug concentration increased from 0 to 20 nM to 40 nM”. Moreover, the “Mcl1/Bak interaction (PPI count), cytoplasm or whole cell” value in [5] is “did not exhibit an obvious change”. Further, in experiment [6] (5-day treatment), the tumor result is “almost disappeared”. In experiment [6] (continued treatment), the “tumor as treatment continued (acquired resistance)” value was “grew back and larger”. In addition, the xenograft growth result in experiment [6] (first week) is reported as “effectively inhibited for the first week”. Further, the “interaction between cyclin E and CDK2 (PPI count)” value in [7] was “effectively inhibited”. The “P-ERK/c-Myc interactions (PPI count)” value in [8] (100 nM, 12 h, 5 PPI dataset) is listed as “significantly increased interactions; also recorded: upregulation”. The “p-ERK/c-Myc PPI” value in [8] (12 hours, 9 PPI dataset) was “effectively inhibited”. For the same molecule, the “p-AKT/mTOR interactions in the cytoplasm” value in [9] was “downregulated the p-AKT/mTOR pathway reducing the interactions in the cytoplasm”. Further, the “p-AKT (S473) level” value in experiment [10] is on record as “effectively inhibit the p-AKT (S473) level”. Moreover, the spatial signaling networks result in experiment [11] is recorded as “altered”. Besides, the “p-β-catenin clusters 12 and 19: degree of node and neighborhoods” value in experiment [11] (40 nM vs control) was “higher degree of a node and more neighborhoods with p-EGFR clusters”. The “distribution of spatial signaling network maps in the cytosol (clusters 0, 1, 2)” value in experiment [11] (40 nM, 48 hours vs control) is on record as “more dispersed (i.e., less aggregated) distribution in the cytosol; also recorded: more dispersed distribution in the cytosol”. Also, the “proportion (frequency) of cluster 2 (WNT1) and cluster 6 (non-p-β-catenin)” value in [11] (after 40 nM drug treatment) was “occupied a large proportion (frequency) after drug treatment”. Besides, the “degree of the node of WNT1 in cluster 2” value in [11] (control vs 40 nM) is “reduced from 10 to 4”. Further, in [12], the “p-EGFR (Y1173) level” value is “decreased the p-EGFR (Y1173) level”. Moreover, in experiment [13], the overall survival entry is given as “longer; also recorded: extended” and the progression-free survival result was “longer; also recorded: extended”. Further, the “distribution of treated cells over 12 subpopulations” value in experiment [14] is “mainly distributed in subpopulation 3 and subpopulation 0”.
